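48-hour exposure; five concentrations; linearly interpolated endpoints. The concentration for 50% growth inhibition is given as GI50. TGI marks complete inhibition of growth.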
Assays:
Test in all cases: growth of human tumour cells (NCI), 48 h
786-0 renal = system: 786-0 renal
A498 renal = system: A498 renal
A549 NSCLC = system: A549 NSCLC
ACHN renal = system: ACHN renal
BT-549 breast = system: BT-549 breast
CAKI-1 renal = system: CAKI-1 renal
CCRF-CEM leukemia = system: CCRF-CEM leukemia
COLO 205 colon = system: COLO 205 colon
DU-145 prostate = system: DU-145 prostate
EKVX NSCLC = system: EKVX NSCLC
HCC-2998 colon = system: HCC-2998 colon
HCT-116 colon = system: HCT-116 colon
HCT-15 colon = system: HCT-15 colon
HL-60(TB) leukemia = system: HL-60(TB) leukemia
HOP-62 NSCLC = system: HOP-62 NSCLC
HOP-92 NSCLC = system: HOP-92 NSCLC
HS 578T breast = system: HS 578T breast
HT29 colon = system: HT29 colon
IGROV1 ovarian = system: IGROV1 ovarian
K-562 leukemia = system: K-562 leukemia
KM12 colon = system: KM12 colon
LOX IMVI melanoma = system: LOX IMVI melanoma
M14 melanoma = system: M14 melanoma
MALME-3M melanoma = system: MALME-3M melanoma
MCF7 breast = system: MCF7 breast
MDA-MB-231 breast = system: MDA-MB-231 breast
MDA-MB-435 = system: MDA-MB-435
MOLT-4 leukemia = system: MOLT-4 leukemia
NCI-H226 lung = system: NCI-H226 lung
NCI-H23 lung = system: NCI-H23 lung
NCI-H460 lung = system: NCI-H460 lung
NCI-H522 lung = system: NCI-H522 lung
NCI/ADR-RES ovarian = system: NCI/ADR-RES ovarian
OVCAR-3 ovarian = system: OVCAR-3 ovarian
OVCAR-4 ovarian = system: OVCAR-4 ovarian
OVCAR-5 ovarian = system: OVCAR-5 ovarian
OVCAR-8 ovarian = system: OVCAR-8 ovarian
PC-3 prostate = system: PC-3 prostate
RPMI-8226 leukemia = system: RPMI-8226 leukemia
RXF 393 renal = system: RXF 393 renal
SF-268 CNS = system: SF-268 CNS
SF-295 CNS = system: SF-295 CNS
SF-539 CNS = system: SF-539 CNS
SK-MEL-2 melanoma = system: SK-MEL-2 melanoma
SK-MEL-28 melanoma = system: SK-MEL-28 melanoma
SK-MEL-5 melanoma = system: SK-MEL-5 melanoma
SK-OV-3 ovarian = system: SK-OV-3 ovarian
SN12C renal = system: SN12C renal
SNB-19 CNS = system: SNB-19 CNS
SNB-75 CNS = system: SNB-75 CNS
SR leukemia = system: SR leukemia
SW-620 colon = system: SW-620 colon
T-47D breast = system: T-47D breast
TK-10 renal = system: TK-10 renal
U251 CNS = system: U251 CNS
UACC-257 melanoma = system: UACC-257 melanoma
UACC-62 melanoma = system: UACC-62 melanoma
UO-31 renal = system: UO-31 renal

Clc1ccc(CCC(Cn2ccnc2)Sc2c(Cl)cccc2Cl)cc1 (stereo unspecified)
GI50 (786-0 renal): 3.49 µM
TGI (786-0 renal): 12.4 µM
GI50 (A498 renal): 1.59 µM
TGI (A498 renal): 6.66 µM
GI50 (A549 NSCLC): 3.5 µM
TGI (A549 NSCLC): 14.5 µM
GI50 (ACHN renal): 4.32 µM
TGI (ACHN renal): 15.1 µM
GI50 (BT-549 breast): 4.3 µM
TGI (BT-549 breast): 15.1 µM
GI50 (CAKI-1 renal): 2.6 µM
TGI (CAKI-1 renal): 10.5 µM
GI50 (CCRF-CEM leukemia): 3.4 µM
TGI (CCRF-CEM leukemia): 14.1 µM
GI50 (COLO 205 colon): 3.14 µM
TGI (COLO 205 colon): 11.1 µM
GI50 (DU-145 prostate): 5.05 µM
TGI (DU-145 prostate): 16.8 µM
GI50 (EKVX NSCLC): 2.64 µM
TGI (EKVX NSCLC): 17 µM
GI50 (HCC-2998 colon): 2.85 µM
TGI (HCC-2998 colon): 11.8 µM
GI50 (HCT-116 colon): 2.13 µM
TGI (HCT-116 colon): 5.3 µM
GI50 (HCT-15 colon): 3.54 µM
TGI (HCT-15 colon): 13.7 µM
GI50 (HL-60(TB) leukemia): 2.85 µM
TGI (HL-60(TB) leukemia): 5.72 µM
GI50 (HOP-62 NSCLC): 6.03 µM
TGI (HOP-62 NSCLC): 19.4 µM
GI50 (HOP-92 NSCLC): 1.79 µM
TGI (HOP-92 NSCLC): 7.23 µM
GI50 (HS 578T breast): 3.28 µM
TGI (HS 578T breast): 19.5 µM
GI50 (HT29 colon): 1.78 µM
TGI (HT29 colon): 3.77 µM
GI50 (IGROV1 ovarian): 4.45 µM
TGI (IGROV1 ovarian): 18.1 µM
GI50 (K-562 leukemia): 3.28 µM
TGI (K-562 leukemia): 11.7 µM
GI50 (KM12 colon): 3.19 µM
TGI (KM12 colon): 11.2 µM
GI50 (LOX IMVI melanoma): 2.11 µM
TGI (LOX IMVI melanoma): 5.11 µM
GI50 (M14 melanoma): 4.29 µM
TGI (M14 melanoma): 14.7 µM
GI50 (MALME-3M melanoma): 2.92 µM
TGI (MALME-3M melanoma): 8.21 µM
GI50 (MCF7 breast): 3.43 µM
TGI (MCF7 breast): 13.2 µM
GI50 (MDA-MB-231 breast): 3.9 µM
TGI (MDA-MB-231 breast): 18.8 µM
GI50 (MDA-MB-435): 2.78 µM
TGI (MDA-MB-435): 10.3 µM
GI50 (MOLT-4 leukemia): 2.89 µM
TGI (MOLT-4 leukemia): 8.21 µM
GI50 (NCI-H226 lung): 5.59 µM
TGI (NCI-H226 lung): 35.1 µM
GI50 (NCI-H23 lung): 3.41 µM
TGI (NCI-H23 lung): 15.5 µM
GI50 (NCI-H460 lung): 3.07 µM
TGI (NCI-H460 lung): 10.8 µM
GI50 (NCI-H522 lung): 2.37 µM
TGI (NCI-H522 lung): 7.5 µM
GI50 (NCI/ADR-RES ovarian): 3 µM
TGI (NCI/ADR-RES ovarian): 11.7 µM
GI50 (OVCAR-3 ovarian): 3.34 µM
TGI (OVCAR-3 ovarian): 10.8 µM
GI50 (OVCAR-4 ovarian): 3.58 µM
TGI (OVCAR-4 ovarian): 16.5 µM
GI50 (OVCAR-5 ovarian): 6.56 µM
TGI (OVCAR-5 ovarian): 20.4 µM
GI50 (OVCAR-8 ovarian): 3.15 µM
TGI (OVCAR-8 ovarian): 14.3 µM
GI50 (PC-3 prostate): 2.64 µM
TGI (PC-3 prostate): 12.6 µM
GI50 (RPMI-8226 leukemia): 3.25 µM
TGI (RPMI-8226 leukemia): > 100 µM
GI50 (RXF 393 renal): 2.57 µM
TGI (RXF 393 renal): 13.8 µM
GI50 (SF-268 CNS): 4.36 µM
TGI (SF-268 CNS): 20.2 µM
GI50 (SF-295 CNS): 2.56 µM
TGI (SF-295 CNS): 11.9 µM
GI50 (SF-539 CNS): 4.71 µM
TGI (SF-539 CNS): 17.8 µM
GI50 (SK-MEL-2 melanoma): 3.02 µM
TGI (SK-MEL-2 melanoma): 7.29 µM
GI50 (SK-MEL-28 melanoma): 7.03 µM
TGI (SK-MEL-28 melanoma): 19.5 µM
GI50 (SK-MEL-5 melanoma): 2.08 µM
TGI (SK-MEL-5 melanoma): 4.88 µM
GI50 (SK-OV-3 ovarian): 10.9 µM
TGI (SK-OV-3 ovarian): 22.8 µM
GI50 (SN12C renal): 2.82 µM
TGI (SN12C renal): 14.9 µM
GI50 (SNB-19 CNS): 5.07 µM
TGI (SNB-19 CNS): 48.7 µM
GI50 (SNB-75 CNS): 15.4 µM
TGI (SNB-75 CNS): 36.4 µM
GI50 (SR leukemia): 3.64 µM
TGI (SR leukemia): 24 µM
GI50 (SW-620 colon): 3.43 µM
TGI (SW-620 colon): 13.9 µM
GI50 (T-47D breast): 2.25 µM
TGI (T-47D breast): 10.5 µM
GI50 (TK-10 renal): 3.52 µM
TGI (TK-10 renal): 11.9 µM
GI50 (U251 CNS): 3.23 µM
TGI (U251 CNS): 14 µM
GI50 (UACC-257 melanoma): 3.39 µM
TGI (UACC-257 melanoma): 13 µM
GI50 (UACC-62 melanoma): 2.8 µM
TGI (UACC-62 melanoma): 12.5 µM
GI50 (UO-31 renal): 3.07 µM
TGI (UO-31 renal): 13.8 µM
